From ChEMBL document CHEMBL3885861, “Open TG-GATES”

Species on record: Rattus norvegicus
Assay: Open TG-GATES - Regimen: Daily Repeat
Type: toxicity, organism-based, Sprague-Dawley
Design: regimen Daily Repeat, gender Male, age 6 weeks
Conditions: in vivo, po, route gavage; for APTT / Bas / Eos / Fbg / Hb / Ht / Lym / MCHC / MCV / Mono / Neu / PT / Plat / RBC / Ret / WBC: tissue Blood; for KIDNEY_L / KIDNEY_R / KIDNEY_TOTAL: tissue Kidney; for LIVER: tissue Liver; for ALP / ALT / AST / CRE / DBIL / GLC / K / LDH / Na / PL / RALB / TBIL / TC / TG / TP / gamma-GTP / IP / Ca: tissue Plasma
[1] = 200 mg/kg, 72 h, dose level Middle, time 3 day
[2] = 200 mg/kg, […], dose level Middle, time 7 day
[3] = 200 mg/kg, […], dose level Middle, time 14 day
[4] = 200 mg/kg, […], dose level Middle, time 28 day
[5] = 600 mg/kg, 72 h, dose level High, time 3 day
[6] = 600 mg/kg, […], dose level High, time 7 day
[7] = 600 mg/kg, […], dose level High, time 14 day
[8] = 600 mg/kg, […], dose level High, time 28 day

SMILES: O=C1NC(=O)C(c2ccccc2)(c2ccccc2)N1 [PHENYTOIN]
- TERMINAL_BW [1]: 220.5 g
- APTT [1]: 21 s
- Bas [1]: 0%
- Eos [1]: 0.8%
- Fbg [1]: 304.4 mg/dL
- Hb [1]: 13 g/dL
- Ht [1]: 39.4%
- Lym [1]: 77.4%
- MCHC [1]: 33.1%
- MCV [1]: 63.8 fL
- Mono [1]: 2.4%
- Neu [1]: 18.4%
- PT [1]: 15.5 s
- Plat [1]: 117 x10_4/uL
- RBC [1]: 618.4 x10_4/ul
- Ret [1]: 7.3%
- WBC [1]: 98.2 x10_2/uL
- KIDNEY_L [1]: 0.9 g
- KIDNEY_R [1]: 0.9 g
- KIDNEY_TOTAL [1]: 1.9 g
- LIVER [1]: 10.5 g
- ALP [1]: 1568.8 IU/L
- ALT [1]: 45.8 IU/L
- AST [1]: 75.4 IU/L
- CRE [1]: 0.1 mg/dL
- DBIL [1]: 0.008 mg/dL
- GLC [1]: 185.8 mg/dL
- K [1]: 4 meq/L
- LDH [1]: 188 IU/L
- Na [1]: 143.4 meq/L
- PL [1]: 147 mg/dL
- RALB [1]: 2.9 g/dL
- TBIL [1]: 0.012 mg/dL
- TC [1]: 84.4 mg/dL
- TG [1]: 85.2 mg/dL
- TP [1]: 5.8 g/dL
- gamma-GTP [1]: 1 IU/L
- TERMINAL_BW [2]: 247.9 g
- TERMINAL_BW [3]: 301 g
- TERMINAL_BW [4]: 393.6 g
- APTT [2]: 22.3 s
- Bas [2]: 0%
- Eos [2]: 0.6%
- Fbg [2]: 324 mg/dL
- Hb [2]: 13.1 g/dL
- Ht [2]: 38.8%
- Lym [2]: 79.8%
- MCHC [2]: 33.7%
- MCV [2]: 62.5 fL
- Mono [2]: 2.4%
- Neu [2]: 16.2%
- PT [2]: 15.6 s
- Plat [2]: 123.7 x10_4/uL
- RBC [2]: 621.2 x10_4/ul
- Ret [2]: 6%
- WBC [2]: 109.9 x10_2/uL
- APTT [3]: 22.3 s
- Bas [3]: 0%
- Eos [3]: 0.8%
- Fbg [3]: 285.6 mg/dL
- Hb [3]: 14.1 g/dL
- Ht [3]: 41.4%
- Lym [3]: 82.6%
- MCHC [3]: 34.1%
- MCV [3]: 62 fL
- Mono [3]: 2.2%
- Neu [3]: 13.6%
- PT [3]: 16.3 s
- Plat [3]: 121.5 x10_4/uL
- RBC [3]: 669.8 x10_4/ul
- Ret [3]: 4.7%
- WBC [3]: 112.2 x10_2/uL
- APTT [4]: 23.4 s
- Bas [4]: 0%
- Eos [4]: 1.2%
- Fbg [4]: 332.6 mg/dL
- Hb [4]: 15.4 g/dL
- Ht [4]: 43.4%
- Lym [4]: 84%
- MCHC [4]: 35.5%
- MCV [4]: 58.1 fL
- Mono [4]: 1.4%
- Neu [4]: 12.6%
- PT [4]: 15.8 s
- Plat [4]: 122.2 x10_4/uL
- RBC [4]: 747 x10_4/ul
- Ret [4]: 2.9%
- WBC [4]: 117 x10_2/uL
- KIDNEY_L [2]: 1.1 g
- KIDNEY_R [2]: 1 g
- KIDNEY_TOTAL [2]: 2.1 g
- KIDNEY_L [3]: 1.2 g
- KIDNEY_R [3]: 1.2 g
- KIDNEY_TOTAL [3]: 2.4 g
- KIDNEY_L [4]: 1.4 g
- KIDNEY_R [4]: 1.5 g
- KIDNEY_TOTAL [4]: 2.9 g
- LIVER [2]: 12.4 g
- LIVER [3]: 13.9 g
- LIVER [4]: 17.5 g
- ALP [2]: 1383 IU/L
- ALT [2]: 39.4 IU/L
- AST [2]: 61 IU/L
- CRE [2]: 0.2 mg/dL
- DBIL [2]: 0.004 mg/dL
- GLC [2]: 187.6 mg/dL
- IP [2]: 6.9 mg/dL
- K [2]: 4.1 meq/L
- LDH [2]: 159.2 IU/L
- Na [2]: 141.8 meq/L
- PL [2]: 146.4 mg/dL
- RALB [2]: 3.1 g/dL
- TBIL [2]: 0.024 mg/dL
- TC [2]: 74.8 mg/dL
- TG [2]: 120.4 mg/dL
- TP [2]: 5.8 g/dL
- gamma-GTP [2]: 1 IU/L
- ALP [3]: 1572.8 IU/L
- ALT [3]: 41.8 IU/L
- AST [3]: 65.8 IU/L
- CRE [3]: 0.2 mg/dL
- DBIL [3]: 0 mg/dL
- GLC [3]: 174.2 mg/dL
- IP [3]: 7 mg/dL
- K [3]: 4.2 meq/L
- LDH [3]: 130 IU/L
- Na [3]: 142.8 meq/L
- PL [3]: 147 mg/dL
- RALB [3]: 3.1 g/dL
- TBIL [3]: 0.002 mg/dL
- TC [3]: 70.6 mg/dL
- TG [3]: 163.4 mg/dL
- TP [3]: 5.6 g/dL
- gamma-GTP [3]: 1.6 IU/L
- ALP [4]: 1131.8 IU/L
- ALT [4]: 44 IU/L
- AST [4]: 74.6 IU/L
- CRE [4]: 0.2 mg/dL
- DBIL [4]: 0.002 mg/dL
- GLC [4]: 186.4 mg/dL
- IP [4]: 6.3 mg/dL
- K [4]: 3.9 meq/L
- LDH [4]: 146.2 IU/L
- Na [4]: 143.6 meq/L
- PL [4]: 160 mg/dL
- RALB [4]: 3.2 g/dL
- TBIL [4]: 0.028 mg/dL
- TC [4]: 81 mg/dL
- TG [4]: 138.4 mg/dL
- TP [4]: 6.3 g/dL
- gamma-GTP [4]: 1.6 IU/L
- TERMINAL_BW [5]: 211.2 g
- APTT [5]: 21.7 s
- Bas [5]: 0%
- Eos [5]: 1%
- Fbg [5]: 282.8 mg/dL
- Hb [5]: 13.4 g/dL
- Ht [5]: 39.8%
- Lym [5]: 77.6%
- MCHC [5]: 33.8%
- MCV [5]: 64.7 fL
- Mono [5]: 2.4%
- PT [5]: 15.7 s
- Plat [5]: 124.6 x10_4/uL
- RBC [5]: 617 x10_4/ul
- Ret [5]: 6.3%
- WBC [5]: 85 x10_2/uL
- KIDNEY_L [5]: 0.9 g
- KIDNEY_R [5]: 0.9 g
- KIDNEY_TOTAL [5]: 1.9 g
- LIVER [5]: 10.5 g
- ALP [5]: 1803.2 IU/L
- ALT [5]: 45 IU/L
- AST [5]: 73.6 IU/L
- CRE [5]: 0.1 mg/dL
- DBIL [5]: 0.002 mg/dL
- GLC [5]: 158 mg/dL
- IP [5]: 7.3 mg/dL
- K [5]: 4.4 meq/L
- LDH [5]: 193.6 IU/L
- Na [5]: 143.2 meq/L
- PL [5]: 127.4 mg/dL
- RALB [5]: 3 g/dL
- TBIL [5]: 0.01 mg/dL
- TC [5]: 67 mg/dL
- TG [5]: 74.6 mg/dL
- TP [5]: 5.7 g/dL
- gamma-GTP [5]: 1.2 IU/L
- TERMINAL_BW [6]: 243.1 g
- TERMINAL_BW [7]: 290.1 g
- TERMINAL_BW [8]: 332.2 g
- APTT [6]: 23.9 s
- Bas [6]: 0%
- Eos [6]: 0.6%
- Fbg [6]: 311.5 mg/dL
- Hb [6]: 13.8 g/dL
- Ht [6]: 39.7%
- Lym [6]: 80.4%
- MCHC [6]: 34.7%
- MCV [6]: 62.1 fL
- Mono [6]: 2.2%
- Neu [6]: 15.6%
- PT [6]: 15.6 s
- Plat [6]: 125.6 x10_4/uL
- RBC [6]: 638.6 x10_4/ul
- Ret [6]: 4.6%
- WBC [6]: 101.9 x10_2/uL
- APTT [7]: 25.5 s
- Bas [7]: 0%
- Eos [7]: 0.8%
- Fbg [7]: 281.6 mg/dL
- Hb [7]: 14.4 g/dL
- Ht [7]: 42.7%
- Lym [7]: 81.6%
- MCHC [7]: 33.6%
- MCV [7]: 60.3 fL
- Mono [7]: 1.8%
- Neu [7]: 14.6%
- PT [7]: 16.3 s
- Plat [7]: 121.7 x10_4/uL
- RBC [7]: 709.6 x10_4/ul
- Ret [7]: 4.4%
- WBC [7]: 118.8 x10_2/uL
- APTT [8]: 25.5 s
- Bas [8]: 0%
- Eos [8]: 1%
- Fbg [8]: 299 mg/dL
- Hb [8]: 15.7 g/dL
- Ht [8]: 44.4%
- Lym [8]: 85.2%
- MCHC [8]: 35.4%
- MCV [8]: 56.8 fL
- Mono [8]: 1.4%
- Neu [8]: 11.6%
- PT [8]: 15.9 s
- Plat [8]: 105 x10_4/uL
- RBC [8]: 781.8 x10_4/ul
- Ret [8]: 2.5%
- WBC [8]: 89.2 x10_2/uL
- KIDNEY_L [6]: 1.1 g
- KIDNEY_R [6]: 1.1 g
- KIDNEY_TOTAL [6]: 2.2 g
- KIDNEY_L [7]: 1.2 g
- KIDNEY_R [7]: 1.2 g
- KIDNEY_TOTAL [7]: 2.3 g
- KIDNEY_L [8]: 1.3 g
- KIDNEY_R [8]: 1.3 g
- KIDNEY_TOTAL [8]: 2.6 g
- LIVER [6]: 13.6 g
- LIVER [7]: 13.6 g
- LIVER [8]: 13.8 g
- ALP [6]: 1547.2 IU/L
- ALT [6]: 39.4 IU/L
- AST [6]: 59.6 IU/L
- CRE [6]: 0.2 mg/dL
- DBIL [6]: 0 mg/dL
- GLC [6]: 167 mg/dL
- IP [6]: 6.8 mg/dL
- K [6]: 4.2 meq/L
- LDH [6]: 173 IU/L
- Na [6]: 142.2 meq/L
- PL [6]: 145.2 mg/dL
- RALB [6]: 3 g/dL
- TBIL [6]: 0.024 mg/dL
- TC [6]: 77.8 mg/dL
- TG [6]: 78.6 mg/dL
- TP [6]: 5.8 g/dL
- gamma-GTP [6]: 1 IU/L
- ALP [7]: 1535.6 IU/L
- ALT [7]: 43.6 IU/L
- AST [7]: 65.6 IU/L
- CRE [7]: 0.2 mg/dL
- Ca [7]: 10.2 mg/dL
- DBIL [7]: 0 mg/dL
- GLC [7]: 186 mg/dL
- IP [7]: 6.4 mg/dL
- K [7]: 4.1 meq/L
- LDH [7]: 157.2 IU/L
- Na [7]: 143 meq/L
- PL [7]: 137.8 mg/dL
- RALB [7]: 3 g/dL
- TBIL [7]: 0.004 mg/dL
- TC [7]: 69.4 mg/dL
- TG [7]: 99.4 mg/dL
- TP [7]: 5.7 g/dL
- gamma-GTP [7]: 1.6 IU/L
- ALP [8]: 1175.6 IU/L
- ALT [8]: 40.4 IU/L
- AST [8]: 62 IU/L
- CRE [8]: 0.2 mg/dL
- Ca [8]: 10 mg/dL
- DBIL [8]: 0 mg/dL
- GLC [8]: 183.2 mg/dL
- IP [8]: 5.4 mg/dL
- K [8]: 4 meq/L
- LDH [8]: 135.8 IU/L
- Na [8]: 143.4 meq/L
- PL [8]: 135.4 mg/dL
- RALB [8]: 3.1 g/dL
- TBIL [8]: 0.024 mg/dL
- TC [8]: 67.2 mg/dL
- TG [8]: 95.4 mg/dL
- TP [8]: 6.1 g/dL
- gamma-GTP [8]: 1.4 IU/L
